Data as given in PubChem BioAssay (NCI).
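The compound was tested at five concentrations on cells cultured in 96-well plates, with a 48-hour exposure period. TGI is the concentration that stops growth completely.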

Key:
Experiment in all cases: NCI tumour cell line growth inhibition, 48 h
UACC-257 melanoma = tested on: UACC-257 melanoma
M14 melanoma = tested on: M14 melanoma
HT29 colon = tested on: HT29 colon
PC-3 prostate = tested on: PC-3 prostate
LOX IMVI melanoma = tested on: LOX IMVI melanoma
COLO 205 colon = tested on: COLO 205 colon
U251 CNS = tested on: U251 CNS
HOP-62 NSCLC = tested on: HOP-62 NSCLC
MCF7 breast = tested on: MCF7 breast
MDA-N = tested on: MDA-N
SK-MEL-28 melanoma = tested on: SK-MEL-28 melanoma
786-0 renal = tested on: 786-0 renal
SK-OV-3 ovarian = tested on: SK-OV-3 ovarian
HS 578T breast = tested on: HS 578T breast
NCI-H226 lung = tested on: NCI-H226 lung
K-562 leukemia = tested on: K-562 leukemia
BT-549 breast = tested on: BT-549 breast
DU-145 prostate = tested on: DU-145 prostate
OVCAR-4 ovarian = tested on: OVCAR-4 ovarian
A549 NSCLC = tested on: A549 NSCLC
MDA-MB-231 breast = tested on: MDA-MB-231 breast
RXF 393 renal = tested on: RXF 393 renal
MDA-MB-435 = tested on: MDA-MB-435
CAKI-1 renal = tested on: CAKI-1 renal
SF-268 CNS = tested on: SF-268 CNS
IGROV1 ovarian = tested on: IGROV1 ovarian
UO-31 renal = tested on: UO-31 renal
SW-620 colon = tested on: SW-620 colon
SNB-19 CNS = tested on: SNB-19 CNS
KM12 colon = tested on: KM12 colon
OVCAR-3 ovarian = tested on: OVCAR-3 ovarian
HCC-2998 colon = tested on: HCC-2998 colon
SN12C renal = tested on: SN12C renal
HL-60(TB) leukemia = tested on: HL-60(TB) leukemia
HOP-92 NSCLC = tested on: HOP-92 NSCLC
CCRF-CEM leukemia = tested on: CCRF-CEM leukemia
OVCAR-8 ovarian = tested on: OVCAR-8 ovarian
SF-295 CNS = tested on: SF-295 CNS
SNB-75 CNS = tested on: SNB-75 CNS
TK-10 renal = tested on: TK-10 renal
HCT-15 colon = tested on: HCT-15 colon
NCI-H460 lung = tested on: NCI-H460 lung
NCI-H23 lung = tested on: NCI-H23 lung
SK-MEL-5 melanoma = tested on: SK-MEL-5 melanoma
HCT-116 colon = tested on: HCT-116 colon
A498 renal = tested on: A498 renal
MOLT-4 leukemia = tested on: MOLT-4 leukemia
UACC-62 melanoma = tested on: UACC-62 melanoma
NCI-H522 lung = tested on: NCI-H522 lung
ACHN renal = tested on: ACHN renal
EKVX NSCLC = tested on: EKVX NSCLC
T-47D breast = tested on: T-47D breast
SR leukemia = tested on: SR leukemia
MALME-3M melanoma = tested on: MALME-3M melanoma
NCI/ADR-RES ovarian = tested on: NCI/ADR-RES ovarian
OVCAR-5 ovarian = tested on: OVCAR-5 ovarian
RPMI-8226 leukemia = tested on: RPMI-8226 leukemia
SF-539 CNS = tested on: SF-539 CNS

CC1(C)[C@@H](Cn2cnc3c(N)ncnc32)CC[C@@]1(C)CO was tested, and the TGI (UACC-257 melanoma) was greater than 100 µM, the TGI (M14 melanoma) was greater than 100 µM and the TGI (HT29 colon) was greater than 100 µM. For the same compound, the TGI (PC-3 prostate) was greater than 100 µM, the TGI (LOX IMVI melanoma) was greater than 100 µM and the TGI (COLO 205 colon) was greater than 100 µM. It also gave a TGI (U251 CNS) greater than 100 µM, a TGI (HOP-62 NSCLC) greater than 100 µM and a TGI (MCF7 breast) greater than 100 µM. For the same compound, the TGI (MDA-N) was greater than 100 µM, the TGI (SK-MEL-28 melanoma) was greater than 100 µM and the TGI (786-0 renal) was greater than 100 µM. The TGI (SK-OV-3 ovarian) was greater than 100 µM, the TGI (HS 578T breast) was greater than 100 µM and the TGI (NCI-H226 lung) was greater than 100 µM. For the same compound, the TGI (K-562 leukemia) was greater than 100 µM, the TGI (BT-549 breast) was greater than 100 µM and the TGI (DU-145 prostate) was greater than 100 µM. It also gave a TGI (OVCAR-4 ovarian) greater than 100 µM, a TGI (A549 NSCLC) greater than 100 µM and a TGI (MDA-MB-231 breast) greater than 100 µM. The TGI (RXF 393 renal) was greater than 100 µM, the TGI (MDA-MB-435) was greater than 100 µM and the TGI (CAKI-1 renal) was greater than 100 µM. It also gave a TGI (SF-268 CNS) greater than 100 µM, a TGI (IGROV1 ovarian) greater than 100 µM and a TGI (UO-31 renal) greater than 100 µM. It also gave a TGI (SW-620 colon) greater than 100 µM, a TGI (SNB-19 CNS) greater than 100 µM and a TGI (KM12 colon) greater than 100 µM. For the same compound, the TGI (OVCAR-3 ovarian) was greater than 100 µM, the TGI (HCC-2998 colon) was greater than 100 µM and the TGI (SN12C renal) was greater than 100 µM. The TGI (HL-60(TB) leukemia) was greater than 100 µM, the TGI (HOP-92 NSCLC) was greater than 100 µM and the TGI (CCRF-CEM leukemia) was greater than 100 µM. The TGI (OVCAR-8 ovarian) was greater than 100 µM, the TGI (SF-295 CNS) was greater than 100 µM and the TGI (SNB-75 CNS) was greater than 100 µM. For the same compound, the TGI (TK-10 renal) was greater than 100 µM, the TGI (HCT-15 colon) was greater than 100 µM and the TGI (NCI-H460 lung) was greater than 100 µM. The TGI (NCI-H23 lung) was greater than 100 µM, the TGI (SK-MEL-5 melanoma) was greater than 100 µM and the TGI (HCT-116 colon) was greater than 100 µM. It also gave a TGI (A498 renal) greater than 100 µM, a TGI (MOLT-4 leukemia) greater than 100 µM and a TGI (UACC-62 melanoma) greater than 100 µM. It also gave a TGI (NCI-H522 lung) greater than 100 µM, a TGI (ACHN renal) greater than 100 µM and a TGI (EKVX NSCLC) greater than 100 µM. The TGI (T-47D breast) was greater than 100 µM, the TGI (SR leukemia) was 76.8 µM and the TGI (MALME-3M melanoma) was greater than 100 µM. It also gave a TGI (NCI/ADR-RES ovarian) greater than 100 µM and a TGI (OVCAR-5 ovarian) greater than 100 µM.
For O=c1c(SSc2coc3cc(F)ccc3c2=O)coc2cc(F)ccc12, the TGI (UACC-257 melanoma) was 77 µM, the TGI (HT29 colon) was 32.3 µM and the TGI (PC-3 prostate) was 21.5 µM. The TGI (LOX IMVI melanoma) was 8.21 µM, the TGI (COLO 205 colon) was 43.2 µM and the TGI (U251 CNS) was 79 µM. It also gave a TGI (HOP-62 NSCLC) greater than 100 µM, a TGI (MCF7 breast) of 43.6 µM and a TGI (MDA-N) of 34.3 µM. It also gave a TGI (SK-MEL-28 melanoma) of 30.4 µM, a TGI (786-0 renal) of 21.6 µM and a TGI (HS 578T breast) of 68 µM. The TGI (NCI-H226 lung) was greater than 100 µM, the TGI (K-562 leukemia) was 64.2 µM and the TGI (BT-549 breast) was greater than 100 µM. For the same compound, the TGI (DU-145 prostate) was greater than 100 µM, the TGI (A549 NSCLC) was greater than 100 µM and the TGI (MDA-MB-231 breast) was 37.1 µM. For the same compound, the TGI (RXF 393 renal) was greater than 100 µM, the TGI (MDA-MB-435) was 36.3 µM and the TGI (CAKI-1 renal) was 43.3 µM. It also gave a TGI (RPMI-8226 leukemia) greater than 100 µM, a TGI (SF-268 CNS) greater than 100 µM and a TGI (IGROV1 ovarian) of 20.2 µM. The TGI (UO-31 renal) was 52.7 µM, the TGI (SW-620 colon) was 43 µM and the TGI (SNB-19 CNS) was greater than 100 µM. It also gave a TGI (KM12 colon) of 28.5 µM, a TGI (OVCAR-3 ovarian) greater than 100 µM and a TGI (HCC-2998 colon) of 35.6 µM. For the same compound, the TGI (SN12C renal) was 36.6 µM, the TGI (HL-60(TB) leukemia) was 54.7 µM and the TGI (CCRF-CEM leukemia) was 37.9 µM. It also gave a TGI (OVCAR-8 ovarian) greater than 100 µM, a TGI (SF-295 CNS) greater than 100 µM and a TGI (SNB-75 CNS) of 33.6 µM. The TGI (TK-10 renal) was 66.5 µM, the TGI (HCT-15 colon) was 33.3 µM and the TGI (NCI-H460 lung) was 98.3 µM. The TGI (NCI-H23 lung) was greater than 100 µM, the TGI (SK-MEL-5 melanoma) was 46.2 µM and the TGI (SF-539 CNS) was greater than 100 µM. The TGI (HCT-116 colon) was 19.3 µM, the TGI (MOLT-4 leukemia) was 69.6 µM and the TGI (UACC-62 melanoma) was 36.1 µM. It also gave a TGI (NCI-H522 lung) of 47.3 µM, a TGI (ACHN renal) of 26.1 µM and a TGI (EKVX NSCLC) of 99.3 µM. The TGI (T-47D breast) was 46.6 µM, the TGI (SR leukemia) was greater than 100 µM and the TGI (MALME-3M melanoma) was greater than 100 µM. For the same compound, the TGI (NCI/ADR-RES ovarian) was 78.8 µM and the TGI (OVCAR-5 ovarian) was greater than 100 µM.
